What was measured:
[1] = target: human GnRH receptor1 (GnRHR1) (Homo sapiens (Human), UniProt P30968); experiment: Assay of GnRH antagonizing effect: inhibition of GnRH-stimulated intracellular calcium flux in HEK293 cells transiently expressing human GnRHR1; format: cell-based; conditions: 5 nM GnRH, FLIPR calcium dye, read-out: IC50 (drug concentration at which 50% GnRH-stimulated intracellular calcium flux was inhibited)
From the text: 1) Cloning and Construction of the Vector Expressing Human GnRH Receptor1 (GnRHR1)
Using cDNA deprived from human pituitary (BECTON DICKINSON) as a template, the DNA fragment coding 45 to 1115 bp of human GnRHR1 (Accession No. L03380), which was reported by Kakar et al., was amplified by PCR method and inserted into the multi-cloning site of pcDNA3.1(+) (Invitrogen). The DNA sequence inserted was perfectly matched to the previously reported sequence.
2) Preparation of HEK293 (Human Embryonic Kidney) Cells Expressing Human GnRH Receptor1
The expression vector introduced human GnRHR1 gene was transfected into cultured HEK293 cells (medium : MEM, 10% FCS, containing antibiotics, non-essential amino acids and pyruvic acid) by means of lipofection with the use of Lipofectamine2000 (Invitrogen). After transfection, the cells were cultured for 2 days, and used for examinations.
3) Assay of GnRH Antagonizing Effect
Antagonizing effect of compounds for human GnRHR1 was evaluated by change of calcium levels in GnRH-stimulated cells. After removing the culture medium of HEK293 cells transiently expressing human GnRHR1, cells were washed with 200 μL piper well of the washing buffer (Hank's Balanced Salt Solutions, 20 mM N-2-hydroxyethylpiperazine-N′-2-ethanesulfonic acid, 1.3 mM calcium chloride, 0.5 mM magnesium chloride, 0.4 mM magnesium sulfate). One hundred μL of the Ca^2+sensitive dye solution (FLIPR Calcium Assay Kit (Molecular Devices)) was added to the well, and the cells were incubated for 1 hour at 37° C., 5% CO2. Then, intracellular calcium levels were determined under the following condition by using FLEX STATION (Molecular Devices). In the equipment, which was warmed to 37° C., 50 μL of test compound diluted with the measurement buffer (the washing buffer with 0.1% Albumin bovine serum) was added to the well. After 1 minute, 50 μL of 5 nM GnRH was added to the well. The drug concentration, at which 50% GnRH-stimulated intracellular calcium flux was inhibited (IC50 value), was calculated using logit plot (Table 108).

[2] = Assay for oral absorbability: plasma drug concentration in rats after intravenous (1 mg/kg) and oral (3 mg/kg) administration (Cmax, bioavailability, C360); format: in vivo; conditions: SD rats; for blood concentration 6 hours after oral administration, sustainability (in words) / availability by oral administration (in words): oral 3 mg/kg; for blood concentration 6 hours after oral administration, sustainability (in words): 360 minutes, compared with Control compounds 1 and 2; for availability by oral administration (in words): compared with the compounds of Example 22 (sulfonamide) and Example 95 (amide); for Cmax / bioavailability: male, rat, plasma; for Cmax / C360 (plasma drug concentration at 360 minutes after administration): oral administration, 3 mg/kg; for Cmax: read-out: Cmax (maximum plasma drug concentration); for C360 (plasma drug concentration at 360 minutes after administration): class symbols; for bioavailability: oral 3 mg/kg vs intravenous 1 mg/kg
Method: Assay for Oral Absorbability
1) Preparation of the Samples for Measurement of the Drug Concentration After Intravenous Injection to the Tail Vein
As experimental animal, overnight fasted SD rats (Charles River, male, 7 weeks of age, 170-210 g) were used. One mg of a test compound was dissolved by adding 0.2 mL of N,N-dimethylacetoamide, 0.798 mL of saline and 0.002 mL of 2N NaOH, and then 1.0 mg/mL solution was prepared. The body weights of rats were measured, and the solution of the test compound was injected intravenously to the tail vein of unanesthetized rats at the dose of 1 mL/kg (1 mg/kg). The intravenous injection to the tail vein was performed with 26 G injection needle and 1 mL syringe. The sampling times for collection of blood were 2, 15, 60, 120, 240 and 360 minutes after the intravenous injection to the tail vein. The blood was centrifuged, and the plasma was used as the sample for measurement of the drug concentration in blood.
2) Preparation of the Samples for Measurement of the Drug Concentration After Oral Administration
As experimental animal, overnight fasted SD rats (Charles River, male, 7 weeks of age, 170-210 g) were used. Three mg of a test compound was dissolved by adding 0.2 mL of N,N-dimethylacetoamide, 9.794 mL of 0.5% aqueous sodium methylcellulose solution and 0.006 mL of 2N NaOH, and then 0.3 mg/mL solution was prepared. The body weights of rats were measured, and the solution of the test compound was administered orally at the dose of 10 mL/kg (3 mg/kg). The oral administration was performed with gastric tube for rat and 2.5 mL syringe. The sampling times for collection of blood were 15, 30, 60, 120, 240 and 360 minutes after the oral administration. The blood was centrifuged, and the plasma was used as the sample for measurement of the drug concentration in blood.
3) Measurement of the Drug Concentration
To 0.025 mL of the plasma obtained in 1) and 2) described above, 0.1 mL of an adequate internal standard material was added according to the usual method, and then deproteinization was performed by adding 0.875 mL of acetonitrile. After centrifugation, 0.005 mL of the supernatant was injected into LC-MS/MS. The drug concentration in plasma was measured by LC-MS/MS method under the conditions as follows. To 0.05 mL of the blank plasma were added the internal standard material and various test compounds adequately according to the usual method, similar operating described above was done, and then the standard curves were prepared.
Each area under the plasma drug concentration-time curve by intravenous injection to the tail vein and oral administration of the test compound was estimated with WinNonlin Professional by Pharsight Corporation from the plasma drug concentration at each time obtained from the above mentioned method, and then the bioavailability (%) was calculated based on the following formula.
Bioavailability (%)={[(Area under the plasma drug concentration-time curve by oral administration)/3]/(area under the plasma drug concentration -time curve by intravenous injection to the tail vein)}×100
In the oral administration, the maximum plasma drug concentration (Cmax), bioavailability and the plasma drug concentration at 360 minutes after administration (C360) are shown in Tables 110 to 112.

Sequence of human GnRH receptor1 (GnRHR1) (P30968 whole entry): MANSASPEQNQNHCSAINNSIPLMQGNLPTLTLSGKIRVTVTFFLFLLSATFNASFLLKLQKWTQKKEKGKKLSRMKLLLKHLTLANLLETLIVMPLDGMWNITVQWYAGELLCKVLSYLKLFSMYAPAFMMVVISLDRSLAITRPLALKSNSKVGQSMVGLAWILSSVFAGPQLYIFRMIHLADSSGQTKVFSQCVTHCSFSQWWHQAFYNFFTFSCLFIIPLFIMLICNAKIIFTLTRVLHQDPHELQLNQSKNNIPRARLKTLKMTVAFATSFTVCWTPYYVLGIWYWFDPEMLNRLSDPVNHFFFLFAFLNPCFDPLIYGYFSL

SMILES	IC50 [1] [µM]	blood concentration 6 hours after oral administration, sustainability (in words) [2]	availability by oral administration (in words) [2]	Cmax [2] [µg/mL]	C360 (plasma drug concentration at 360 minutes after administration) [2]	bioavailability [2] [%]
COc1cc(F)c(-n2c(=O)[nH]c3csc(C(=O)O)c3c2=O)cc1COc1c(OC)ccc(F)c1F [Example 414]	0.042	maintain their blood concentrations 6 hours after the oral administrations	more excellent availability	25.6	A (A: >1000 ng/mL)	
COCCOc1ccc(F)c(F)c1COc1ccc(F)c(-n2c(=O)[nH]c3csc(C(=O)O)c3c2=O)c1 [Example 367]	0.015	maintain their blood concentrations 6 hours after the oral administrations	more excellent availability	14.1	A (A: >1000 ng/mL)	
CC(C)(Oc1ccc(Cl)c(-n2c(=O)[nH]c3csc(C(=O)O)c3c2=O)c1)c1ccccc1 [Example 271]		maintain their blood concentrations 6 hours after the oral administrations	more excellent availability	17.6	A (A: >1000 ng/mL)	
CN(C(=O)c1ccc(Cl)c(-n2c(=O)[nH]c3csc(C(=O)O)c3c2=O)c1)c1ccccc1 [Example 95]	0.019			0.322		
CC(C)(c1ccccc1)S(=O)(=O)c1ccc(F)c(-n2c(=O)[nH]c3csc(C(=O)O)c3c2=O)c1 [Example 202, 5-Carboxy-3-[2-fluoro-5-(1-methyl-1-phenylethylsulfonyl) -phenyl]thieno[3,4-d]pyrimidine-2,4(1H,3H)-dione]	0.02	maintain their blood concentrations 6 hours after the oral administrations	more excellent availability	1.31	B (B: 300 ng/mL to 1000 ng/mL)	
CC(C)(C(=O)c1ccc(Cl)c(-n2c(=O)[nH]c3csc(C(=O)O)c3c2=O)c1)c1ccccc1 [Example 146]	0.01	maintain their blood concentrations 6 hours after the oral administrations	more excellent availability	17.9	A (A: >1000 ng/mL)	
O=C(O)c1scc2[nH]c(=O)n(-c3cc(S(=O)(=O)N4CCCc5ccccc54)ccc3Cl)c(=O)c12 [Example 22, 5-Carboxy-3-[2-chloro-5-(3,4-dihydroquinolin-1(2H)-yl-sulfonyl)phenyl]thieno[3,4-d]pyrimidine-2,4(1H,3H)-dione]	0.002			0.342		11
CNC(=O)c1scc2[nH]c(=O)n(-c3cc(S(=O)(=O)N4CCCc5ccccc54)ccc3Cl)c(=O)c12 [Example 31, 5-Methylcarbamoyl-3-[2-chloro-5-(3,4-dihydroquinolin-1(2H) -ylsulfonyl)phenyl]thieno[3,4-d]pyrimidine-2,4(1H,3H)-dione]	0.272					
Cc1cccc(N(C)S(=O)(=O)c2ccc(Cl)c(-n3c(=O)[nH]c4sccc4c3=O)c2)c1 [Example 17]	0.101					
O=c1[nH]c2sccc2c(=O)n1-c1cc(S(=O)(=O)N2CCCc3ccccc32)ccc1Cl [Example 3]	0.08					
COc1cccc(F)c1C(C)Oc1ccc(F)c(-n2c(=O)[nH]c3csc(C(=O)O)c3c2=O)c1 (stereo not drawn) [Example 48, 5-Carboxy-3-{2-fluoro-5-[1-(2-fluoro-6-methoxyphenyl) -ethoxy]phenyl}[3,4-d]pyrimidine-2,4(1H,3H)-dione]	0.029		more excellent availability	14.5		65
O=c1[nH]c2ccsc2c(=O)n1-c1cc(S(=O)(=O)N2CCCc3ccccc32)ccc1Cl [Example 2]	0.199					
COc1cc(F)c(-n2c(=O)[nH]c3csc(C(=O)O)c3c2=O)cc1CN(C)c1c(F)cccc1F [Example 420]	0.029	maintain their blood concentrations 6 hours after the oral administrations	more excellent availability	15.2	B (B: 300 ng/mL to 1000 ng/mL)	
Cc1ccccc1COc1ccc(Cl)c(-n2c(=O)[nH]c3csc(C(=O)O)c3c2=O)c1 [Example 25]	0.085					
COc1cc(F)c(-n2c(=O)[nH]c3csc(C(=O)O)c3c2=O)cc1OCc1c(OC)ccc(F)c1F [Example 233, 5-Carboxy-3-[2-fluoro-5-(2,3-difluoro-6-methoxybenzyloxy) -4-methoxyphenyl]thieno[3,4-d]pyrimidine-2,4(1H,3H)-dione]	0.015	maintain their blood concentrations 6 hours after the oral administrations	more excellent availability	25	A (A: >1000 ng/mL)	
COc1ccc(F)cc1C(C)(C)Sc1ccc(F)c(-n2c(=O)[nH]c3csc(C(=O)O)c3c2=O)c1 [Example 191]	0.017		more excellent availability	13.5		

From patent publication US9040693B2, “Fused heterocyclic derivative, medicinal composition containing the same, and medicinal use thereof” (KISSEI PHARMACEUTICAL CO., LTD., priority 2005, dated 2015)
